The source of these data is PMC10976219, “Purification and Biochemical Characterization of Polyphenol Oxidase Extracted from Wheat Bran (Wan grano)” (Molecules, 2024).

What is called Km is the concentration of substrate that gives half-maximal velocity.

Structures are written as SMILES.

For this test, the system named is T1, wheat PPO (purified wheat bran polyphenol oxidase).
T1 construct: gene PPO-A1; native, purified from wheat bran (ammonium sulfate, DEAE-Sepharose, Superdex G-75); approx. 21 kDa on SDS-PAGE, dual bands 21 and 17 kDa
As to the kind of experiment: spectrophotometric oxidation assay at […] nm, Lineweaver-Burk. The format is biochemical, Triticum aestivum. The conditions noted are these: 50 mM phosphate pH 6.5, 35 °C, 2-10 mM substrate.

In the case of `Oc1ccccc1O` [catechol], the Km came to 6.36 ± 0.71 mM.
As for `O=C(O[C@@H]1Cc2c(O)cc(O)cc2O[C@@H]1c1cc(O)c(O)c(O)c1)c1cc(O)c(O)c(O)c1` [epigallocatechin gallate], the Km stood at 7.7 ± 0.14 mM.
For `Oc1cc(O)c2c(c1)O[C@H](c1cc(O)c(O)c(O)c1)[C@H](O)C2` [epigallocatechin], the Michaelis-Menten constant (Km) was determined as 9.05 ± 0.18 mM.
As to `Oc1cc(O)c2c(c1)O[C@H](c1ccc(O)c(O)c1)[C@H](O)C2` [epicatechin], the Km was found to be 8.01 ± 0.46 mM.
With `O=C(O)c1cc(O)c(O)c(O)c1` [gallic acid], the Michaelis constant (Km) was determined as 7.05 ± 0.47 mM.
As for `Oc1cccc(O)c1O` [pyrogallic acid], the Km came to 7.37 ± 0.71 mM.
Regarding `O=C(O[C@@H]1Cc2c(O)cc(O)cc2O[C@@H]1c1ccc(O)c(O)c1)c1cc(O)c(O)c(O)c1` [epicatechin gallate], the Km is 7.9 ± 0.64 mM.
